According to US20140120166A1, “COMPOSITION OF ENTACOPONE” (INNOPHARMAX, INC., priority 2011, published 2014):

Experiment: Dissolution test (FDA dissolution method for entacapone, USP paddle apparatus, HPLC analysis)
Format: physicochemical
Details: USP standard paddle stirring apparatus, 50 rpm, 900 mL pH 5.5 phosphate buffer solution, 120 minutes
Description: The dissolution test was conducted according to the drug dissolution method for entacapone obtained by searching the Dissolution Methods Database provided on the FDA website (http://www.accessdata.fda.gov/scripts/cder/dissolution/dsp_Search Results_Dissolutions.cfm). The dissolution test was carried out using a USP standard paddle stirring apparatus with a rotation speed of 50 rpm. The solvent used was 900 mL pH 5.5 phosphate buffer solution and the period of test was 120 minutes.

CCN(CC)C(=O)/C(C#N)=C/c1cc(O)c(O)c([N+](=O)[O-])c1 [entacapone, (E)-2-cyano-3-(3,4-dihydroxy-5-nitro-phenyl)-N,N-diethyl-2-propenamide]
Dissolution Rate (%): about 81.15%
